Assays:
[1] = biological target: T1, CD73 (Homo sapiens (Human), UniProt P21589); format: biochemical; conditions: 1 mM NaH2PO4 in enzyme buffer, CD73 0.3 nM, AMP 15 uM
[2] = biological target: T1, CD73; assay: MDA-MB-231 Cell Based CD73 Activity Assay (DMEM); conditions: MDA-MB-231-GFP cells, DMEM medium with 10% human plasma, 200 uM AMP

T1 sequence (P21589 27-574): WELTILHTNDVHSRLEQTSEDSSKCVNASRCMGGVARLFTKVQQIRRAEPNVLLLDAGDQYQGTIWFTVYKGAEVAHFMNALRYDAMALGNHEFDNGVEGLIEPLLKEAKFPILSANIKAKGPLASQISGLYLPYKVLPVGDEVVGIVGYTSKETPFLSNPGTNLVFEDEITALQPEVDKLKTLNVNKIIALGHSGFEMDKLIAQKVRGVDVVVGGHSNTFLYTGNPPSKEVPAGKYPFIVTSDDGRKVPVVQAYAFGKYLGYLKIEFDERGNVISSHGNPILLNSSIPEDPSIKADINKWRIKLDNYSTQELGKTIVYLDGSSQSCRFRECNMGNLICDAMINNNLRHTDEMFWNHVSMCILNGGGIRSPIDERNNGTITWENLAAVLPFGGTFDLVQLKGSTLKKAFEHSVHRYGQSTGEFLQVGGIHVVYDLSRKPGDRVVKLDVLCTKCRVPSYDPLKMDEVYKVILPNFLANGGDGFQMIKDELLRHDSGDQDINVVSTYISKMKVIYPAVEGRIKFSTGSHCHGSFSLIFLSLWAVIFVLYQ

| SMILES | IC50 [1] | EC50 [2] |
| --- | --- | --- |
| O=c1[nH]cc(-c2cc([C@H]3C[C@@H]3c3ncc(Cl)cc3F)c3nccn3n2)c(=O)[nH]1 [Example 586, 5-(8-((1S,2S)-2-(5-chloro-3-fluoropyridin-2-yl)cyclopropyl)imidazo[1,2-b]pyridazin-6-yl)pyrimidine-2,4(1H,3H)-dione] | 0.85 nM | 2.94 nM |
| O=c1[nH]cc(-c2cc(N3CCC4(CCC(F)(F)CC4)C3)c3nccn3n2)c(=O)[nH]1 [Example 587, 5-(8-(8,8-difluoro-2-azaspiro[4.5]decan-2-yl)imidazo[1,2-b]pyridazin-6-yl)pyrimidine-2,4(1H,3H)-dione] | 23.3 nM | 66.1 nM |
| O=c1[nH]cc(-c2cc(N3CCC(Cn4ccnn4)C3)c3nccn3n2)c(=O)[nH]1 (stereo not shown) [Example 592, 5-(8-(3-((1H-1,2,3-triazol-1-yl)methyl)pyrrolidin-1-yl)imidazo[1,2-b]pyridazin-6-yl)pyrimidine-2,4(1H,3H)-dione] | 96.2 nM | 774 nM |
| C#CCC1CCN(c2cc(-c3c[nH]c(=O)[nH]c3=O)nn3ccnc23)C1 (stereo not shown) [Example 593, 5-(8-(3-(prop-2-yn-1-yl)pyrrolidin-1-yl)imidazo[1,2-b]pyridazin-6-yl)pyrimidine-2,4(1H,3H)-dione] | 7.24 nM | 33 nM |
| O=c1[nH]cc(-c2cc([C@H]3C[C@@H]3c3cc4c(cnn4CC(F)(F)F)cc3F)c3nccn3n2)c(=O)[nH]1 [Example 595, 5-(8-((1S,2S)-2-(5-fluoro-1-(2,2,2-trifluoroethyl)-1H-indazol-6-yl)cyclopropyl)imidazo[1,2-b]pyridazin-6-yl)pyrimidine-2,4(1H,3H)-dione] | 1.27 nM | 0.52 nM |
| O=c1[nH]cc(-c2cc([C@H]3C[C@@H]3c3ccc4c(C(F)(F)F)nn(CC(F)(F)F)c4c3)c3nccn3n2)c(=O)[nH]1 [Example 607, 5-(8-((1S,2S)-2-(1-(2,2,2-trifluoroethyl)-3-(trifluoromethyl)-1H-indazol-6-yl)cyclopropyl)imidazo[1,2-b]pyridazin-6-yl)pyrimidine-2,4(1H,3H)-dione] | 0.9 nM | 0.23 nM |

These reach a lower IC50 [1]. Values come first.

| IC50 [1] | EC50 [2] | SMILES |
| --- | --- | --- |
| 0.7 nM | 0.14 nM | O=c1[nH]cc(-c2cc([C@H]3C[C@@H]3c3cc(F)c4cnn(CC(F)(F)F)c4c3)c3nccn3n2)c(=O)[nH]1 [Example 596, 5-(8-((1S,2S)-2-(4-fluoro-1-(2,2,2-trifluoroethyl)-1H-indazol-6-yl)cyclopropyl)imidazo[1,2-b]pyridazin-6-yl)pyrimidine-2,4(1H,3H)-dione] |
| 0.69 nM | 1.9 nM | O=c1[nH]cc(-c2cc([C@H]3C[C@@H]3c3ccc(Cl)cn3)c3nccn3n2)c(=O)[nH]1 [Example 585, 5-(8-((1S,2S)-2-(5-chloropyridin-2-yl)cyclopropyl)imidazo[1,2-b]pyridazin-6-yl)pyrimidine-2,4(1H,3H)-dione] |
| 0.69 nM | 2.33 nM | O=c1[nH]cc(-c2cc([C@H]3C[C@@H]3c3ncc(Cl)cc3F)c3ncc(F)n3n2)c(=O)[nH]1 [Example 588, 5-(8-((1S,2S)-2-(5-chloro-3-fluoropyridin-2-yl)cyclopropyl)-3-fluoroimidazo[1,2-b]pyridazin-6-yl)pyrimidine-2,4(1H,3H)-dione] |
| 0.58 nM | 0.12 nM | O=c1[nH]cc(-c2cc([C@H]3C[C@@H]3c3ccc4cnn(CC(F)(F)F)c4c3F)c3nccn3n2)c(=O)[nH]1 [Example 594, 5-(8-((1S,2S)-2-(7-fluoro-1-(2,2,2-trifluoroethyl)-1H-indazol-6-yl)cyclopropyl)imidazo[1,2-b]pyridazin-6-yl)pyrimidine-2,4(1H,3H)-dione] |
| 0.37 nM | 0.23 nM | O=c1[nH]cc(-c2cc([C@H]3C[C@@H]3c3ccc4cnn(CC(F)(F)F)c4n3)c3ncc(F)n3n2)c(=O)[nH]1 [Example 610, 5-(3-fluoro-8-((1S,2S)-2-(1-(2,2,2-trifluoroethyl)-1H-pyrazolo[3,4-b]pyridin-6-yl)cyclopropyl)imidazo[1,2-b]pyridazin-6-yl)pyrimidine-2,4(1H,3H)-dione] |

— patent US20240043427A1 (Gilead Sciences, Inc., priority 2020, published 2024)
